These are literature values, as cited in patent US20040126318A1, “Methods, formulations and kits for monitoring and diagnosing gastric emptying and gastroparesis, and formulations for determining gastrointestinal motility” (priority 2002, published 2004).

Turning to `COc1cc(N)c(Cl)cc1C(=O)NC1CCN(CCCOc2ccc(F)cc2)CC1OC` (centres unmarked) [cisapride], where the note is “reason for removal from the market by the FDA”, the cardiac side effects entry was “produced severe and sometimes fatal arrhythmias”. As to `CCN(CC)CCNC(=O)c1cc(Cl)c(N)cc1OC` [Metochlopramide], the “patients with serious side effects (drowsiness, nightmares, depression, Parkinsonism)” value (patients treated with this drug) is recorded as “up to 50%”.
